Test system: voltage operated calcium channels (VOC)
Test: Inhibition of depolarization-induced 45Ca uptake into brain synaptosomes
Assay type: biochemical
Conditions: crude synaptosomal preparation (P₂) from male Wistar rat cerebral cortex; depolarization with 145 mM KCl; 15 s uptake; corrected for basal uptake; estimated from dose response curves
Text: The pharmacological properties of the compounds of the invention can be illustrated by determining their capability to inhibit calcium uptake into brain synaptosomes.
Depolarization of neuronal membranes leads to an opening of socalled "voltage operated calcium channels" (VOC) in the membranes which allows a massive influx of calcium from the extracellular space. A crude synaptosomal preparation (socalled P₂ fraction) contains small vesicles surrounded by neuronal membrane and it is possible in such a preparation to study a depolarization-induced opening of VOC.
A male Wistar rat is decapitated and the cerebral cortex removed and homogenized in 10 ml. of ice-cold 0.32 M sucrose using a glass homogenizer with a teflon pestle. All subsequent steps for isolation of synaptosomes are done at 0-4°C. The homogenate is centrifuged at 1000 x g for 10 min and the resulting supernatant is re-centrifuged at 18000 x g for 20 min. This pellet (P₂) is resuspended in 0.32 M sucrose (5 ml per g of original tissue) with a teflon pestle.
The tubes are pre-incubated for 30 min on ice and then for 6 min at 37°C in a water bath.
The incubation is continued for 15 s.
The amount of radioactivity on the filter disc is determined by liquid scintillation spectrometry.
Test substances are dissolved in 10 ml of 48% ethanol at a concentration of 0.44 mg/ml. Dilution are made in 48% ethanol to give final concentrations of 0.1, 0.3, 1, 3 and 10 µg/ml. Experiments are performed in triplicate. Controls for depolarized and nondepolarized samples are included in the assay and test substances are only tested in depolarized samples.
The test value will be given as IC₅₀ (the concentration (µg/ml) of test substance which inhibit 50% of stimulated uptake of ⁴⁵Ca (uptake in depolarized samples corrected for basal uptake in nondepolarized samples )). The IC₅₀ value is estimated from dose response curves.

| Structure (SMILES) | IC₅₀ (concentration of test substance which inhibit 50% of stimulated uptake of ⁴⁵Ca) [µg/mL] |
| --- | --- |
| FC(F)(F)c1cccc(OC(CCN2CCCCC2)c2ccc(Cl)s2)c1.O=C(O)C(=O)O (stereo not shown) [Compound 18, 1-(3-(5-chloro-2-thienyl)-3-(3-trifluoromethylphenoxy)propyl)piperidine, oxalate] | 7.3 |
| FC(F)(F)c1ccc(OC(CCN2CCCCC2)c2ccc(Cl)s2)cc1.O=C(O)C(=O)O (stereo not shown) [Compound 15, 1-(3-(5-chloro-2-thienyl)-3-(4-trifluoromethylphenoxy)propyl)piperidine, oxalate] | 2.4 |
| FC(F)(F)c1ccccc1OC(CCN1CCCCC1)c1ccc(Cl)s1.O=C(O)C(=O)O (stereo not shown) [Compound 17, 1-(3-(5-chloro-2-thienyl)-3-(2-trifluoromethylphenoxy)propyl)piperidine, oxalate] | 3.0 |
| CN(C)CCC(Oc1ccc(Oc2ccccc2)cc1)c1ccc(Br)s1.O=C(O)C(=O)O (stereo not shown) [Compound 21, 3-(5-Bromo-2-thienyl)-N,N-dimethyl-3-(4-phenoxyphenoxy)propanamine, oxalate] | 5.9 |
| N#Cc1cccc(OC(CCN2CCCCC2)c2ccc(Cl)s2)c1.O=C(O)C(=O)O (stereo not shown) [Compound 16, 1-(3-(5-chloro-2-thienyl)-3-(3-cyanophenoxy)propyl)piperidine, oxalate] | 12.0 |
| CN(C)CCC(Oc1ccc(C(F)(F)F)cc1)c1ccsc1.Cl (stereo not shown) [Compound 27, N,N-dimethyl-3-(3-thienyl)-3-(4-trifluoromethylphenoxy)propanamine, hydrochloride] | 13 |
| CCCCNCCC(Oc1ccc(C#N)cc1)c1cc(C)sc1C.O=C(O)C(=O)O (stereo not shown) [Compound 3, N-butyl-3-(4-cyanophenoxy)-3-(2,5-dimethyl-3-thienyl)propanamine, oxalate] | 6.6 |
| CSc1ccc(OC(CCN(C)C)c2ccc(Br)s2)cc1.O=C(O)C(=O)O (stereo not shown) [Compound 19, 3-(5-Bromo-2-thienyl)-N,N-dimethyl-3-(4-(methylthio)phenoxy)propanamine, oxalate] | 4.4 |
| CCCCNCCC(Oc1ccc(C(F)(F)F)cc1)c1cc(C)sc1C.O=C(O)C(=O)O (stereo not shown) [Compound 4, N-butyl-3-(2,5-dimethyl-3-thienyl)-3-(4-trifluoromethylphenoxy)propanamine, oxalate] | 3.8 |
| Cc1coc(C)c1C(CCN(C)C)Oc1ccc(C(F)(F)F)cc1.O=C(O)C(=O)O (stereo not shown) [Compound 11, N,N-Dimethyl-3-(2,4-dimethyl-3-furyl)-3-(4-trifluoromethylphenoxy)propaneamine, oxalate] | 10.3 |
| CN(C)CCC(Oc1ccc(C(F)(F)F)cc1)c1cccs1.O=C(O)C(=O)O (stereo not shown) [Compound 23, N,N-dimethyl-3-(2-thienyl)-3-(4-trifluoromethylphenoxy)propanamine, oxalate] | 8.6 |
| FC(F)(F)c1ccc(OC(CCN2CCCCC2)c2cccs2)cc1.O=C(O)C(=O)O (stereo not shown) [Compound 24, 1-(3-(2-Thienyl)-3-(4-trifluoromethylphenoxy)propyl)piperidine, oxalate] | 5.8 |
| CN(C)CCC(Oc1ccc(-c2ccccc2)cc1)c1ccc(Br)s1.O=C(O)C(=O)O (stereo not shown) [Compound 22, 3-(5-Bromo-2-thienyl)-N,N-dimethyl-3-(4-phenylphenoxy)propanamine, oxalate] | 4.4 |
